Patent US11912701B2, “Protein kinase inhibitors for promoting liver regeneration or reducing or preventing hepatocyte death” (HEPAREGENIX GMBH, priority 2018, dated 2024)

Tests used:
[1] = molecular target: T1, BRaf (Homo sapiens, UniProt P15056); test: KINOMEscan competition binding assay, BRaf; settings: ratio PoC (off-target)/PoC (MKK4)
T1 construct: purchased ProQinase GmbH, Freiburg, Germany (33PanQinase Assay Service)
Procedure, shortened: (§1)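 DNA-tagged kinases expressed in HEK-293 cells compete between immobilized ligand on blocked beads and test compound at 100 nM; kinase retained on beads quantified by qPCR of the tag.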

[2] = molecular target: T2, JNK1 (Homo sapiens, UniProt P45983); test: KINOMEscan competition binding assay, JNK1; parameters: M1/Q384; host or cells: HEK-293; settings: ratio PoC (off-target)/PoC (MKK4)
Procedure, shortened: as §1
Target sequence in this assay (P45983 1-384 isoform P45983-2): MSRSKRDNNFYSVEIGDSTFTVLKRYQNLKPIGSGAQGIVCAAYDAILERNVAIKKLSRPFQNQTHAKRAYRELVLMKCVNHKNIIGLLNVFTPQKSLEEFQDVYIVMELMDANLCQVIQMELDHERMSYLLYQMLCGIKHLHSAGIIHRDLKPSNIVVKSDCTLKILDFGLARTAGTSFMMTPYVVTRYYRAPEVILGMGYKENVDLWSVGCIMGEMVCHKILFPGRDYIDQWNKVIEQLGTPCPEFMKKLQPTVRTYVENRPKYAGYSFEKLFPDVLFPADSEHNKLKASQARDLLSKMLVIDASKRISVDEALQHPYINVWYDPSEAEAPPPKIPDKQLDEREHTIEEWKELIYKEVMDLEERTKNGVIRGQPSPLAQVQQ

[3] = molecular target: T3, MKK4 (Homo sapiens, UniProt P45985); test: 33PanQinase enzyme assay, MKK4; format: biochemical; settings: assay 'IC50'; read-out: Potency MKK4 (IC50)
T3 construct: purchased ProQinase GmbH, Freiburg, Germany (33PanQinase Assay Service)
T3 sequence (P45985 1-399): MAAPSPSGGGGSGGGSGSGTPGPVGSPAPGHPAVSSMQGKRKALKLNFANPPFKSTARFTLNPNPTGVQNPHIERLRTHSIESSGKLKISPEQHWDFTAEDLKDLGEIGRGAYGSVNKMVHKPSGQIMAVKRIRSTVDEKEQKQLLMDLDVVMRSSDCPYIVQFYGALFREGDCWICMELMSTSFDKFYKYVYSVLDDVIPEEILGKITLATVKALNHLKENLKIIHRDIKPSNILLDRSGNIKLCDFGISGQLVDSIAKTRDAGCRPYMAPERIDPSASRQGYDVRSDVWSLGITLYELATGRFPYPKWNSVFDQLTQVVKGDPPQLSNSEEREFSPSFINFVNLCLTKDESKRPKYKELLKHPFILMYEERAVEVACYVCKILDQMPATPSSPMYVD
Procedure, shortened: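 Radiometric 33PanQinase assay: kinase, substrate, ATP and compound in standard buffer, 60 min at 30 °C; 33Pi incorporation read by scintillation counting.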

[4] = molecular target: T1, BRaf; test: 33PanQinase enzyme assay, BRaf; format: biochemical; settings: ratio IC50(BRaf)/IC50(MKK4)
Procedure, shortened: (§2)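 Radiometric kinase reactions with ATP, test compound in DMSO and enzyme/substrate mix were incubated 60 min at 30 °C, stopped with 2% H3PO4 and washed; incorporated 33Pi was counted by scintillation. Single-concentration data are given as % residual activity; IC50 values come from least-squares curve fits.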

[5] = molecular target: T2, JNK1; test: 33PanQinase enzyme assay, JNK1; format: biochemical; parameters: purchased ProQinase GmbH, Freiburg, Germany (33PanQinase Assay Service); settings: ratio IC50(JNK1)/IC50(MKK4)
Procedure, shortened: as §2
Target sequence in this assay (P45983 whole entry): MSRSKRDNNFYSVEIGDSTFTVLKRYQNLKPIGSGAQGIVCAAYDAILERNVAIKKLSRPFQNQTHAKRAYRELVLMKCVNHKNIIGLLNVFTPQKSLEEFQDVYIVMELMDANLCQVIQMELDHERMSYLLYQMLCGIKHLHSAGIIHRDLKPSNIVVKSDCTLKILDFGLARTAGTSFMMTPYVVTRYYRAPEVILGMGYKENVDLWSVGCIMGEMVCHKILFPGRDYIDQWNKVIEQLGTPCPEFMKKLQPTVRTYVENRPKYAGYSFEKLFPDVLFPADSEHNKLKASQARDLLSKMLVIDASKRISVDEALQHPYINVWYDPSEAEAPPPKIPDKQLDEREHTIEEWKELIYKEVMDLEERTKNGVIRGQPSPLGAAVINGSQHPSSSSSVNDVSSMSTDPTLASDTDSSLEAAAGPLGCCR

[6] = molecular target: T4, MKK7 (Homo sapiens, UniProt O14733); test: 33PanQinase enzyme assay, MKK7; format: biochemical; parameters: purchased ProQinase GmbH, Freiburg, Germany (33PanQinase Assay Service); settings: ratio IC50(MKK7)/IC50(MKK4)
T4 sequence (O14733 1-419): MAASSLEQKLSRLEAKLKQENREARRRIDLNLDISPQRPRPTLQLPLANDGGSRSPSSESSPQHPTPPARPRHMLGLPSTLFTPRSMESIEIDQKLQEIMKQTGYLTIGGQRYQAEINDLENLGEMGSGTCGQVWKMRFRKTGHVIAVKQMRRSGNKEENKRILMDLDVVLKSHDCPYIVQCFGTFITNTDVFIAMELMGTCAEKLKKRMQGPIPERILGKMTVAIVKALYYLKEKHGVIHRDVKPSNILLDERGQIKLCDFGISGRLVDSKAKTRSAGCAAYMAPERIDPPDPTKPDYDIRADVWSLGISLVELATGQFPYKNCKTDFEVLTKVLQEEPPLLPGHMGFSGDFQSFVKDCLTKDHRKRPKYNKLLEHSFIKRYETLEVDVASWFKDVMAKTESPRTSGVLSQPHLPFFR
Procedure, shortened: as §2

[7] = molecular target: T5, MKK4 (Homo sapiens, UniProt P45985); test: KINOMEscan competition binding assay, MKK4; settings: residual percent of control binding (PoC) at 100 nM
T5 construct: S84/D399; host or cells: HEK-293
T5 sequence (P45985 84-399): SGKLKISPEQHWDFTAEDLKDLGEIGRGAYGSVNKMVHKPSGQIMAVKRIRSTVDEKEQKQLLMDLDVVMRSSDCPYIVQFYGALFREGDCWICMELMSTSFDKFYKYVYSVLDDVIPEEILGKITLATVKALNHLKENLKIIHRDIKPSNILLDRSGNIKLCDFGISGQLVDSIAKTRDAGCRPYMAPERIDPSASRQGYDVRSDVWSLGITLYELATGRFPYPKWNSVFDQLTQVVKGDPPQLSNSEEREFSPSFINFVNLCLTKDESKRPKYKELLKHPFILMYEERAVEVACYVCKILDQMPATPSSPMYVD
Procedure, shortened: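 KINOMEscan competition of compound versus immobilized ligand for DNA-tagged MKK4 expressed in HEK-293 cells. Bound kinase was quantified by qPCR after elution.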

[8] = molecular target: T4, MKK7; test: KINOMEscan competition binding assay, MKK7; parameters: M1/R419; host or cells: HEK-293; settings: ratio PoC (off-target)/PoC (MKK4)
Procedure, shortened: as §1

T1 sequence (P15056 whole entry, species assumed): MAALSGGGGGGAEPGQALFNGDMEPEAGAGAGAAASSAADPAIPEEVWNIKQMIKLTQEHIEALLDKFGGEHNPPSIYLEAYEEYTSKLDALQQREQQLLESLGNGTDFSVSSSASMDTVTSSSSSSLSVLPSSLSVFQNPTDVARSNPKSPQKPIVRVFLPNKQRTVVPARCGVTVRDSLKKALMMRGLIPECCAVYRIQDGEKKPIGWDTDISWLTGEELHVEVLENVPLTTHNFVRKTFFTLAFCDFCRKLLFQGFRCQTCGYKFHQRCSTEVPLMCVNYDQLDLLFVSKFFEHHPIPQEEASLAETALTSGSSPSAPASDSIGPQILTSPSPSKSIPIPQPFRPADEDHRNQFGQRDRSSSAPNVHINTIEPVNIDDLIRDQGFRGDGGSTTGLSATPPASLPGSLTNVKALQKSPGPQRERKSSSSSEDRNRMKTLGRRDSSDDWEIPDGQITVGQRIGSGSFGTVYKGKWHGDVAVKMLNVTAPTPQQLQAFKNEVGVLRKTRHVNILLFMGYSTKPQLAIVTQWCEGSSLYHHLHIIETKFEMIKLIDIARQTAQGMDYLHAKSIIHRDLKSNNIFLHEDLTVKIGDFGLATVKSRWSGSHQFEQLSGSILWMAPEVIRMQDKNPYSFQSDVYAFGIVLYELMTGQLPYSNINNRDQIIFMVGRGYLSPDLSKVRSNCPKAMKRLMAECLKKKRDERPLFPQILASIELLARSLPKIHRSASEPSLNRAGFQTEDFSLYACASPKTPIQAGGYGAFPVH

Row | SMILES | selectivity based on % Ctrl @100 nM vs. Braf [1] | selectivity based on % Ctrl @100 nM vs. JNK1 [2] | IC50 [3] [nM] | Selectivity Braf, IC50(off-target)/IC50(MKK4) [4] | Selectivity JNK1, IC50(off-target)/IC50(MKK4) [5] | Selectivity IVIKK7, IC50(off-target)/IC50(MKK4) [6] | MKK4 [% Ctrl @ 100 nM [7] | selectivity based on % Ctrl @100 nM vs. MKK7 [8]
1 | CCCS(=O)(=O)Nc1ccc(F)c(C(=O)c2c[nH]c3ncc(-c4cccc(OC)c4)cc23)c1F [Example 103, N-(2,4-difluoro-3-(5-(3-methoxyphenyl)-1H-pyrrolo[2,3-b]pyridine-3-carbonyl)phenyl)propane-1-sulfonamide] | ◯ (3 ≥ Ratio) | ++ (100 ≥ ratio > 10) | 100 to 1000 | ◯ (3 ≥ IC50(off-target)/IC50(MKK4)) | + (10 ≥ IC50(off-target)/IC50(MKK4) > 3) | +++ (IC50(off-target)/IC50(MKK4) > 100) | + (3 ≤ PoC < 30) | ++ (100 ≥ ratio > 10)
2 | CCCS(=O)(=O)Nc1ccc(F)c(C(=O)c2c[nH]c3ncc(-c4ccc(OC)c(OC)c4)cc23)c1F [Example 105, N-(3-(5-(3,4-dimethoxyphenyl)-1H-pyrrolo[2,3-b]pyridine-3-carbonyl)-2,4-difluorophenyl)propane-1-sulfonamide] | ◯ (3 ≥ Ratio) | ++ (100 ≥ ratio > 10) | 100 to 1000 | ◯ (3 ≥ IC50(off-target)/IC50(MKK4)) | ++ (100 ≥ IC50(off-target)/IC50(MKK4) > 10) | +++ (IC50(off-target)/IC50(MKK4) > 100) | ++ (1 ≤ PoC < 3) | ++ (100 ≥ ratio > 10)
3 | CCCS(=O)(=O)Nc1ccc(F)c(C(=O)c2c[nH]c3ncc(-c4ccc(C(F)(F)F)cc4)cc23)c1F [Example 106, N-(2,4-difluoro-3-(5-(4-(trifluoromethyl)phenyl)-1H-pyrrolo[2,3-b]pyridine-3-carbonyl)phenyl)propane-1-sulfonamide] | ◯ (3 ≥ Ratio) | + (10 ≥ ratio > 3) | 100 to 1000 | ◯ (3 ≥ IC50(off-target)/IC50(MKK4)) | + (10 ≥ IC50(off-target)/IC50(MKK4) > 3) | +++ (IC50(off-target)/IC50(MKK4) > 100) | + (3 ≤ PoC < 30) | + (10 ≥ ratio > 3)
4 | O=C(c1cccc(NS(=O)(=O)Cc2ccccc2)c1F)c1c[nH]c2ncc(-c3ccc(Cl)cc3)cc12 [Example 124, N-(3-(5-(4-chlorophenyl)-1H-pyrrolo[2,3-b]pyridine-3-carbonyl)-2-fluorophenyl)-1-phenylmethanesulfonamide] | ++ (100 ≥ ratio > 10) | ++ (100 ≥ ratio > 10) | 100 to 1000 | +++ (IC50(off-target)/IC50(MKK4) > 100) | ◯ (3 ≥ IC50(off-target)/IC50(MKK4)) | +++ (IC50(off-target)/IC50(MKK4) > 100) | + (3 ≤ PoC < 30) | ++ (100 ≥ ratio > 10)

Now from value to molecule:

Row | selectivity based on % Ctrl @100 nM vs. Braf [1] | selectivity based on % Ctrl @100 nM vs. JNK1 [2] | IC50 [3] [nM] | Selectivity Braf, IC50(off-target)/IC50(MKK4) [4] | Selectivity JNK1, IC50(off-target)/IC50(MKK4) [5] | Selectivity IVIKK7, IC50(off-target)/IC50(MKK4) [6] | MKK4 [% Ctrl @ 100 nM [7] | selectivity based on % Ctrl @100 nM vs. MKK7 [8] | SMILES
5 | + (10 ≥ ratio > 3) | ++ (100 ≥ ratio > 10) | 100 to 1000 | ◯ (3 ≥ IC50(off-target)/IC50(MKK4)) | + (10 ≥ IC50(off-target)/IC50(MKK4) > 3) | +++ (IC50(off-target)/IC50(MKK4) > 100) | + (3 ≤ PoC < 30) | ++ (100 ≥ ratio > 10) | CCCS(=O)(=O)Nc1ccc(F)c(C(=O)c2c[nH]c3ncc(-c4ccc([N+](=O)[O-])cc4)cc23)c1F [Example 107, N-(2,4-difluoro-3-(5-(4-nitrophenyl)-1H-pyrrolo[2,3-b]pyridine-3-carbonyl)phenyl)propane-1-sulfonamide]
6 | ++ (100 ≥ ratio > 10) | +++ (Ratio > 100) | < 100 | ◯ (3 ≥ IC50(off-target)/IC50(MKK4)) | + (10 ≥ IC50(off-target)/IC50(MKK4) > 3) | +++ (IC50(off-target)/IC50(MKK4) > 100) | +++ (PoC < 1) | +++ (Ratio > 100) | CCCS(=O)(=O)Nc1ccc(F)c(C(=O)c2c[nH]c3ncc(-c4ccc(C(=O)O)cc4)cc23)c1F [Example 108, 4-(3-(2,6-difluoro-3-(propylsulfonamido)benzoyl)-1H-pyrrolo[2,3-b]pyridin-5-yl)benzoic acid]
7 | + (10 ≥ ratio > 3) | +++ (Ratio > 100) | 100 to 1000 | ◯ (3 ≥ IC50(off-target)/IC50(MKK4)) | + (10 ≥ IC50(off-target)/IC50(MKK4) > 3) | +++ (IC50(off-target)/IC50(MKK4) > 100) | +++ (PoC < 1) | +++ (Ratio > 100) | CCCS(=O)(=O)Nc1ccc(F)c(C(=O)c2c[nH]c3ncc(-c4ccc(C(N)=O)cc4)cc23)c1F [Example 109, 4-(3-(2,6-difluoro-3-(propylsulfonamido)benzoyl)-1H-pyrrolo[2,3-b]pyridin-5-yl)benzamide]
8 | ◯ (3 ≥ Ratio) | ◯ (3 ≥ Ratio) | 100 to 1000 | ◯ (3 ≥ IC50(off-target)/IC50(MKK4)) | + (10 ≥ IC50(off-target)/IC50(MKK4) > 3) | +++ (IC50(off-target)/IC50(MKK4) > 100) | ◯ (30 ≤ PoC) | ◯ (3 ≥ Ratio) | CCCS(=O)(=O)Nc1ccc(F)c(C(=O)c2c[nH]c3ncc(-c4ccc(OC(F)(F)F)cc4)cc23)c1F [Example 111, N-(2,4-difluoro-3-(5-(4-(trifluoromethoxy)phenyl)-1H-pyrrolo[2,3-b]pyridine-3-carbonyl)phenyl)propane-1-sulfonamide]
